The values below come from patent publication US9688639B2, “Solid forms of fungicidal pyrazoles” (E. I. DU PONT DE NEMOURS AND COMPANY, priority 2013, dated 2017).

What all share (assay type): physicochemical
Data set [1] is described as follows: Single crystal X-ray diffraction (calculated density). The conditions noted are these: from single crystal X-ray data collected at −100° C. How it is done:
Suitable single crystals for polymorph Form A were grown from methanol evaporation. A colorless irregular plate with approximate dimensions of 0.520×0.300×0.060 mm was chosen for data collection and mounted on a polymer loop. Single crystal data was collected using a Bruker Platform goniometer with an Apex-II detector. The diffractometer was equipped with an incident beam monochromator using Mo-Kα radiation (λ=0.71073 Å) and a monocap collimator. The crystals were cooled in a −100° C. nitrogen flow during data collection.
The data were indexed and integrated using the Apex-II suite of programs including Sainplus and SADABS. The monoclinic cell parameters were determined to be: a=7.870(5) Å, b=28.037(16) Å, c=7.976(5) Å, beta=103.875(10) °, volume=1708.6(17) Å^3. The space group was determined to be P21/n. The molecular weight was 412.66 g/mol giving a calculated density of 1.604 g/cm^3, and μ(Mo)=2.59 mm^−1 for Z=4. Data reduction led to 3487 unique data from a two-theta range=5.46 to 52.92°. […]
The data were indexed and integrated using the Apex-II suite of programs including Sainplus and SADABS. The orthorhombic cell parameters were determined to be: a=14.285(3) Å, b=11.464(2) Å, c=20.010(3) Å, volume=3276.9(10) Å^3. The space group was determined to be Pbca. The molecular weight was 412.66 g/mol giving a calculated density of 1.673 g/cm^3, and μ(Mo)=2.70 mm^−1 for Z=8. […]

Data set [2] can be described thus: Temperature-dependent X-ray powder diffraction (stability with respect to temperature). The conditions noted are these: heated from 25° C. at 10° C. per minute; pXRD. How it is done: To assess the stability of polymorph Form B of Compound 1 with respect to temperature, X-ray powder diffraction patterns were obtained while heating a sample of Form B from 25° C. to above its melting point. The measurement was conducted at the 5-IDD beam line at the Advanced Photon Source synchrotron located at the Argonne National Laboratory (Argonne, Ill., USA). A Differential-Scanning Calorimeter (DSC, Model DSC600, Linkam Scientific Instruments, Tadworth, U.K.) was mounted in vertical orientation to allow insertion of the DSC into the X-ray beam. The DSC was positioned in the beam line to accept a 100-200 μm square beam under high vacuum. The standard quartz window was replaced with polyimide film (Kapton®, 8 μm thickness, DuPont, Wilmington, Del., USA). An internal thermocouple was installed for temperature recording. A circular charged couple device (CCD) detector (Model Mar165, 165 mm diameter, Marresearch GmbH, Norderstedt, Germany) was used to detect the X-rays scattered from the sample. The detector was equipped with an aluminum cone that covered the detector and extended 100 mm from the face of the detector. This cone was equipped with a beam stop support and 5×3 mm lead beam stop. The cone was continuously purged with helium to minimize air scattering. […]

Data set [3] is described as follows: Differential Scanning Calorimetry. The conditions noted are these: DSC, heated at 2° C./min. How it is done:
Differential Scanning Calorimetry was used to study the crystalline phases of various samples of Compound 1. Data were obtained with a TA Instruments Q20-1220 Differential Scanning Calorimeter (V24.2 Build 107) using a standard cell (FC-03859). Samples were prepared by weighing between 4 and 5 mg of Compound 1 in a gold plated pan (Fauske and Associates, LLC, Burr Ridge, Ill.; part number DSC-M20). The corresponding lid was crimped tightly to the pan and the assembled crucible was inserted into the calorimeter. An empty crucible of the same type was prepared the same way and inserted as the reference. After the instrument was initialized, the sample was first equilibrated at 25° C. and then heated at 2° C./min to a maximum temperature of 225° C.
For orientation: Differential scanning calorimetry records heat flow against a reference as temperature is scanned.

As for `Cc1nn(C)c(Nc2c(F)cccc2Cl)c1-c1ccc(F)cc1Br` [polymorph Form A, 4-(2-bromo-4-fluorophenyl)-N-(2-chloro-6-fluorophenyl)-1,3-dimethyl-1H-pyrazol-5-amine], in data set [1], the calculated density was 1.604 g/mL.

As to `Cc1nn(C)c(Nc2c(F)cccc2Cl)c1-c1ccc(F)cc1Br` [polymorph Form B, 4-(2-bromo-4-fluorophenyl)-N-(2-chloro-6-fluorophenyl)-1,3-dimethyl-1H-pyrazol-5-amine], the “temperature until which the form persists before it converts to polymorph Form A” value in data set [2] stood at 138 °C. In addition, in data set [1], the calculated density is 1.673 g/mL. In addition, the “broad endotherm signal maximum (transition of Form B to Form A)” value in data set [3] is “about 148 °C”. Further, in data set [3] (Form B to Form A), the heat of transition is given as 12 J/g.
